We go through 44 compounds from US20160168540A1, “COMPOSITION FOR MAINTAINING PLATELET FUNCTION” (KYOTO UNIVERSITY, priority 2013, published 2016).

This test concerns the target T1, TACE (ADAM17) (Homo sapiens, UniProt P78536).
T1 construct: made in house; host or cells: mammalian cells or insect cells
Kind of test: TACE (ADAM17) inhibition test. To be noted: fluorescent synthetic substrate, 37° C. for 1.5 hours; read-out: TACE IC50. It counts as biochemical. The source says:
The nucleotide sequence of TACE has been reported by Moss et al. (Moss, M. L. et al., Nature 1997, vol. 385, pp. 733-736). Based on this information, the cDNA of TACE was obtained according to the prescribed method from THP-1 cells or the like, and then incorporated the cDNA into an expression vector. Next, this vector was transformed into mammalian cells or insect cells, and TACE protein was expressed. The TACE protein was isolated, and used as an enzyme. Further, a fluorescent synthetic substrate Nma(N-methylanthranilic acid)-Leu-Ala-Gln-Ala-Val-Arg-Ser-Ser-Lys(Dnp(dinitrophenyl))-D-Arg-NH2 including the TACE-cleaved sequence of a membrane-bound TNF was used as a substrate. The enzyme reaction was carried out by adding 1.8 μL of a solution of the test substance to 90 μL of a fluorescent synthetic substrate prepared with an assay buffer B (50 mM tris-hydrochloric acid buffer (pH 7.5) including 200 mM sodium chloride, 5 mM calcium chloride, 10 μM zinc sulfate, and 0.05% PLURONIC F-68), then mixing 90 μL of a TACE enzyme solution prepared with an assay buffer A (50 mM tris-hydrochloric acid buffer (pH 7.5) including 200 mM sodium chloride, 5 mM calcium chloride, 10 μM zinc sulfate, and 2 mg/mL bovine serum albumin) and reacting at 37° C. for 1.5 hours. Enzyme activity was then determined by measuring with a fluorescence intensity meter (Labsystems, Fluoroskan Ascent) at an excitation wavelength of 355 nm and a measurement wavelength of 460 nm. The 50% inhibitory concentration (IC50) of the test substances was calculated by comparing enzyme activity in the presence and the absence of the test substance to determine the inhibition rate. Further, test substances having an IC50 strength of less than 100 nM were evaluated as “A”, and test substances having an IC50 strength of 100 nM or more were evaluated as “B”.

T1 sequence (P78536 215-824): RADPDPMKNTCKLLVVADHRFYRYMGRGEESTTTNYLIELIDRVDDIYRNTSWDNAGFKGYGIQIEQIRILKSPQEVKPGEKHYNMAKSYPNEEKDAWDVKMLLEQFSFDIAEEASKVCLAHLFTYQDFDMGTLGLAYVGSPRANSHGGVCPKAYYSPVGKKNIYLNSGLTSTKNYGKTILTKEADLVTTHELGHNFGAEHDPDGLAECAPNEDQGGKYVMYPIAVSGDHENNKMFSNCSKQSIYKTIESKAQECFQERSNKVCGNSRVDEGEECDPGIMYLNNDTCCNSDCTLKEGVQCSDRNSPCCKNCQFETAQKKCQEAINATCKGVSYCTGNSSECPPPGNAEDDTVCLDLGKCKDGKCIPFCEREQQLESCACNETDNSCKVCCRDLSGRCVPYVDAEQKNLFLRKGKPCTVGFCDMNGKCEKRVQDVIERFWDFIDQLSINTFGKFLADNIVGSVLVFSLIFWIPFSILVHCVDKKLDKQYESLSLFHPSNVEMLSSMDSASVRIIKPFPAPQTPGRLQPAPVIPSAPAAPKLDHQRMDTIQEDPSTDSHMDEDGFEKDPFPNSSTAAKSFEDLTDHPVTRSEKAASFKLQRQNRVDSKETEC

For `Cc1cccn(CC2(c3ccc(Oc4ccc(Cl)cc4)cc3)NC(=O)NC2=O)c1=O` (racemic) [Compound I-82], the IC50 is below 100 nM. The result for `COc1cccc(Oc2ccc(C3(Cn4cccc(C)c4=O)NC(=O)NC3=O)cc2)c1` (racemic) [Compound I-83] reads below 100 nM; that for `Cc1cccn(CC2(c3ccc(F)c(F)c3)NC(=O)NC2=O)c1=O` (racemic) [Compound I-10, 5-(3,4-difluorophenyl)-5-[(3-methyl-2-oxopyridin-1(2H)-yl)methyl]imidazolidine-2,4-dione], below 100 nM; that for `Cc1cccn(CC2(c3ccc4occc4c3)NC(=O)NC2=O)c1=O` (racemic) [Compound I-22, 5-(benzofuran-5-yl)-5-[(3-methyl-2-oxopyridin-1(2H)-yl)methyl]imidazolidine-2,4-dione], below 100 nM.

With `COc1ccc(C2(Cn3cccc(Br)c3=O)NC(=O)NC2=O)cc1` (racemic) [Compound I-52, 5-[(3-bromo-2-oxopyridin-1(2H)-yl)methyl]-5-(4-methoxyphenyl)imidazolidine-2,4-dione], the IC50 was below 100 nM.

`Cc1cccn(CC2(c3ccc(Oc4ccc(F)cc4F)cc3)NC(=O)NC2=O)c1=O` (racemic) [Compound I-97]: the IC50 is below 100 nM. As to `Cc1cccn(CC2(c3ccc4c(c3)OCCO4)NC(=O)NC2=O)c1=O` (racemic) [Compound I-59], the IC50 was below 100 nM. For the compound `Cc1cccn(CC2(c3ccc(Oc4ccc(F)cc4)cc3)NC(=O)NC2=O)c1=O` (racemic) [Compound I-85], the IC50 is below 100 nM. The result for `Cc1cccn(CC2(c3ccc(CCc4ccccn4)cc3)NC(=O)NC2=O)c1=O` (racemic) [Compound I-115] reads below 100 nM; that for `O=C1NC(=O)C(Cn2cccc(F)c2=O)(c2ccc(-c3ccccc3)cc2)N1` (racemic) [Compound I-49, 5-([1,1′-biphenyl]-4-yl)-5-[(3-fluoro-2-oxopyridin-1(2H)-yl)methyl]imidazolidine-2,4-dione], below 100 nM.

Turning to `Cc1cccn(CC2(c3ccc(C#Cc4ccccn4)cc3)NC(=O)NC2=O)c1=O` (racemic) [Compound I-110], the IC50 was below 100 nM. Consider `Cc1cccn(CC2(c3ccc(-c4ccccn4)cc3)NC(=O)NC2=O)c1=O` (racemic) [Compound I-92], for which the IC50 was below 100 nM. For `O=C1NC(=O)C(Cn2cccc(Br)c2=O)(c2ccc(Cc3ccccc3)cc2)N1` (racemic) [Compound I-149], the IC50 is below 100 nM. In the case of `Cc1cccn(CC2(c3ccc(Oc4ccccc4F)cc3)NC(=O)NC2=O)c1=O` (racemic) [Compound I-86], the half-maximal inhibitory concentration (IC50) was below 100 nM. Consider `COc1ccc(OC(F)(F)F)cc1C1(Cn2cccc(C)c2=O)NC(=O)NC1=O` (racemic) [Compound I-24, 5-[2-methoxy-5-(trifluoromethoxy)phenyl]-5-[(3-methyl-2-oxopyridin-1(2H)-yl)methyl]imidazolidine-2,4-dione], for which the IC50 was at least 100 nM.

As for `Cc1cccn(CC2(c3cc(F)c(F)c(F)c3)NC(=O)NC2=O)c1=O` (racemic) [Compound I-44, 5-[(3-methyl-2-oxopyridin-1(2H)-yl)methyl]-5-(3,4,5-trifluorophenyl)imidazolidine-2,4-dione], the IC50 is below 100 nM.

With `Cc1cccn(CC2(c3ccc(OC(C)C)cc3)NC(=O)NC2=O)c1=O` (racemic) [Compound I-120], the IC50 is below 100 nM. Consider `Cc1cccn(CC2(c3cccc(C#CCN(C)C)c3)NC(=O)NC2=O)c1=O` (racemic) [Compound I-71], for which the IC50 was below 100 nM. As for `COc1cccc(C2(Cn3cccc(C)c3=O)NC(=O)NC2=O)c1` (racemic) [Compound I-4, 5-(3-methoxyphenyl)-5-[(3-methyl-2-oxopyridin-1(2H)-yl)methyl]imidazolidine-2,4-dione], the IC50 was below 100 nM. Consider `COc1cccn(CC2(c3ccccc3)NC(=O)NC2=O)c1=O` (racemic) [Compound I-143], for which the concentration for half-maximal inhibition (IC50) was at least 100 nM. The result for `COc1cc(C)c(Cl)cc1C1(Cn2cccc(C)c2=O)NC(=O)NC1=O` (racemic) [Compound I-70] reads at least 100 nM; that for `COc1ccc(C2(Cn3cccc(C)c3=O)NC(=O)NC2=O)cc1` (racemic) [Compound I-2, 5-(4-methoxyphenyl)-5-[(3-methyl-2-oxopyridin-1(2H)-yl)methyl]imidazolidine-2,4-dione], below 100 nM. The figure for `COc1ccc(Oc2ccc(C3(Cn4cccc(C)c4=O)NC(=O)NC3=O)cc2)cc1` (racemic) [Compound I-81] is below 100 nM. For `Cc1cccn(CC2(c3cc4ccccc4o3)NC(=O)NC2=O)c1=O` (racemic) [Compound I-6, 5-(benzofuran-2-yl)-5-[(3-methyl-2-oxopyridin-1(2H)-yl)methyl]imidazolidine-2,4-dione], the IC50 was below 100 nM. In the case of `Cc1cccn(CC2(c3ccc(Oc4ccccc4)c(Cl)c3)NC(=O)NC2=O)c1=O` (racemic) [Compound I-123], the half-inhibitory concentration (IC50) was below 100 nM. Regarding `COc1ccc(OC)c(C2(Cn3cccc(C)c3=O)NC(=O)NC2=O)c1` (racemic) [Compound I-20, 5-(2,5-dimethoxyphenyl)-5-[(3-methyl-2-oxopyridin-1(2H)-yl)methyl]imidazolidine-2,4-dione], the IC50 is below 100 nM. With `Cc1cccn(CC2(c3cccc(F)c3F)NC(=O)NC2=O)c1=O` (racemic) [Compound I-153], the half-maximal inhibitory concentration (IC50) was below 100 nM. For `Cc1cccn(CC2(c3ccc(Br)cc3)NC(=O)NC2=O)c1=O` (racemic) [Compound I-11, 5-(4-bromophenyl)-5-[(3-methyl-2-oxopyridin-1(2H)-yl)methyl]imidazolidine-2,4-dione], the IC50 is below 100 nM.

With `COc1ccc(Cl)cc1C1(Cn2cccc(C)c2=O)NC(=O)NC1=O` (racemic) [Compound I-27, 5-(5-chloro-2-methoxyphenyl)-5-[(3-methyl-2-oxopyridin-1(2H)-yl)methyl]imidazolidine-2,4-dione], the IC50 is below 100 nM. Take `Cc1cccn(CC2(c3ccc(Oc4ccc(F)c(F)c4)cc3)NC(=O)NC2=O)c1=O` (racemic) [Compound I-98]: the IC50 was below 100 nM. The figure for `Cc1cccn(CC2(c3ccc(OC(F)(F)F)cc3)NC(=O)NC2=O)c1=O` (racemic) [Compound I-79] is below 100 nM. The result for `O=C1NC(=O)C(Cn2cccc(Cl)c2=O)(c2ccc(F)cc2)N1` (racemic) [Compound I-136] reads below 100 nM; that for `Cc1cccn(CC2(c3ccc(Sc4ccccc4)c(F)c3)NC(=O)NC2=O)c1=O` (racemic) [Compound I-103], below 100 nM. As to `O=C1NC(=O)C(Cn2cccc(F)c2=O)(c2ccccc2)N1` (racemic) [Compound I-132], the IC50 was below 100 nM.

For `Cc1cccn(CC2(c3cccc(O)c3)NC(=O)NC2=O)c1=O` (racemic) [Compound I-54, 5-(3-hydroxyphenyl)-5-[(3-methyl-2-oxopyridin-1(2H)-yl)methyl]imidazolidine-2,4-dione], the IC50 was at least 100 nM. Regarding `Cc1cccn(CC2(c3ccc(-c4nn[nH]n4)cc3)NC(=O)NC2=O)c1=O` (racemic) [Compound I-42, 5-[4-(2H-tetrazol-5-yl)phenyl]-5-[(3-methyl-2-oxopyridin-1(2H)-yl)methyl]imidazolidine-2,4-dione], the IC50 is below 100 nM.

In the case of `COc1ccc(F)cc1C1(Cn2cccc(C)c2=O)NC(=O)NC1=O` (racemic) [Compound I-69], the IC50 was below 100 nM.

On to `COc1cc(F)ccc1C1(Cn2cccc(C)c2=O)NC(=O)NC1=O` (racemic) [Compound I-21, 5-(4-fluoro-2-methoxyphenyl)-5-[(3-methyl-2-oxopyridin-1(2H)-yl)methyl]imidazolidine-2,4-dione], for which the IC50 is below 100 nM. As to `C=Cc1ccc(C2(Cn3cccc(C)c3=O)NC(=O)NC2=O)cc1` (racemic) [Compound I-43, 5-[(3-methyl-2-oxopyridin-1(2H)-yl)methyl]-5-(4-vinylphenyl)imidazolidine-2,4-dione], the IC50 is below 100 nM. On to `Cc1cccn(CC2(c3ccc(CCC4CCCCC4)cc3)NC(=O)NC2=O)c1=O` (racemic) [Compound I-118], for which the IC50 is at least 100 nM.

For `Cc1cccn(CC2(c3ccc4c(c3)CCCO4)NC(=O)NC2=O)c1=O` (racemic) [Compound I-26, 5-(chroman-6-yl)-5-[(3-methyl-2-oxopyridin-1(2H)-yl)methyl]imidazolidine-2,4-dione], the IC50 was below 100 nM. The result for `O=C1NC(=O)C(Cn2ccccc2=O)(c2ccccc2)N1` (racemic) [Compound I-46, 5-[(2-oxopyridin-1(2H)-yl)methyl]-5-phenylimidazolidine-2,4-dione] reads below 100 nM; that for `Cc1cccn(CC2(c3ccc(CCc4ccccc4)cc3)NC(=O)NC2=O)c1=O` (racemic) [Compound I-107], below 100 nM; that for `O=C1NC(=O)C(Cn2ccccc2=O)(c2ccc(F)c(F)c2)N1` (racemic) [Compound I-155], below 100 nM.

For orientation: IC50 means the concentration that inhibits the measured activity by half.
